# What was measured:
# adiponectin = experiment: Cytokine assay (ELISA), adiponectin; assay type: in vivo, Zucker Fatty Rats; details: Experiment 2
# Procedure: (§1) Various cytokines were measured by ELISA methodology using kits from the following sources: rat MCP-1—Assay Designs Inc., Ann Arbor, Mich.; rat adiponectin—ALPCO Diagnostics, Salem, N.H.; TNF-a, ALPCO Diagnostics, Salem, N.H.; RAT IL-1B—Assay Designs Inc, Ann Arbor, Mich.; RAT IL-6—ALPCO Diagnostics, Salem, N.H.
# IL-1B = experiment: Cytokine assay (ELISA), IL-1B; assay type: in vivo, Zucker Fatty Rats; details: Experiment 2
# Procedure: as §1
# DNA fragmentation = DNA fragmentation in liver and kidney; assay type: in vivo, Zucker Fatty Rats; details: Experiment 2; for DNA Fragmentation, Kidney / DNA Fragmentation, Liver: percentage of total DNA in the supernatant fraction
# Procedure: Frozen liver and kidney samples were homogenized in lysis buffer (5 mM Tris-HCl, 20 mM EDTA, 0.5% Triton X-100, pH 8.0). Homogenates were centrifuged at 27,000 g for 20 min to separate intact chromatin in the pellet from fragmented DNA in the supernatant fraction. Pellets were re-suspended in 0.5 M perchloric acid and 5.5 M perchloric acid was added to supernatant samples to reach a concentration of 0.5 M. Samples were heated at 90° C. for 15 min and centrifuged at 1,500 g for 10 min to remove protein. Resulting supernatants were reacted with diphenylamine for 16-20 h at room temperature. Absorbance was measured at 600 nm. DNA fragmentation in control samples was expressed as percentage of total DNA appearing in the supernatant fraction. Treatment effects are reported as percent of control fragmentation.
# Zucker Fatty Rats (ZFR) = experiment: Blood pressure and cardiac rate by tail plethysmography; assay type: in vivo; details: for SBP over the last month vs control / SBP after heat stress: Experiment 1; for SBP after heat stress: survivors, 12 days after heat stress; for DBP / SBP / Cardiac rate / SBP at the end of study (75 days) vs Lo Asta group / average SBP vs control from 40 days to end of study: Experiment 2; for DBP / SBP / Cardiac rate: 60 days; for Cardiac rate: in beats/min (unit assumed)
# Procedure: For two experiments, a total of 96 Zucker Fatty Rats (ZFR) (Charles River, Wilmington, Mass.) were used: 48 in each experiment were divided into four groups of 12 rats. Initial body weights ranged between 434 and 624 g in the first experiment and between 388 and 520 g in the second. All rats consumed a regular rat diet in crushed form (Purina Rat Chow, Ralston Purina, St. Louis, Mo.). Sucrose was added to the pulverized regular rat chow (30%, w/w). The four groups comprised a control eating the described diet and three test groups eating the same diet but with the addition of captopril or astaxanthin (two different doses). […] The amount of astaxanthin added was based on 2% (w/w) content of astaxanthin to powder. The first study continued for 57 days while the second continued for 75 days. SBP was measured by tail plethysmography using two different instruments. As in many previous studies, an instrument from Narco Biosciences (Houston, Tex.) was used. This allowed for rapid measurement SBP with a beeper sound system. The second reading was performed on an instrument obtained from Kent Scientific Corporation (Torrington, Conn.). The latter is a computerized, non-invasive tail cuff acquisition system that utilizes a specially-designed differential pressure transducer to non-invasively measure the blood volume in the tail. This instrument not only records SBP, but also provides measurements of mean blood pressure (MBP), diastolic blood pressure (DBP), and cardiac rate. The two instruments were used interchangeably. Previous experience has shown that the SBP readings were virtually the same by either instrument. Rats were allowed free access to their diet and water until SBP readings were obtained between 13.00 h and 17.00 h after a slight warming. Multiple readings on individual rats were taken. To be accepted, SBP measurements on a given rat had to be stable (consistently within 5 mm Hg).
# [1] = Hi Asta, astaxanthin 25 mg/kg in feed
# [2] = Lo Asta, astaxanthin 5 mg/kg in feed
smiles,measurement,setting,value
"CC1=C(/C=C/C(C)=C/C=C/C(C)=C/C=C/C=C(C)/C=C/C=C(C)/C=C/C2=C(C)C(=O)[C@@H](O)CC2(C)C)C(C)(C)C[C@H](O)C1=O [Asta, astaxanthin]",Adiponectin,adiponectin; [1],4.03 ± 0.40
same,Adiponectin,adiponectin; [2],4.11 ± 0.27
same,IL-1β,IL-1B; [1],440.0 ± 25.5
same,IL-1β,IL-1B; [2],490.0 ± 21.7
same,"DNA Fragmentation (% Control), Kidney",DNA fragmentation; [1],100 % Control
same,"DNA Fragmentation (% Control), Liver",DNA fragmentation; [1],103 % Control
same,"DNA Fragmentation (% Control), Kidney",DNA fragmentation; [2],102 % Control
same,"DNA Fragmentation (% Control), Liver",DNA fragmentation; [2],108 % Control
same,"DNA Fragmentation, Kidney",DNA fragmentation; [1],4.3 ± 0.48
same,"DNA Fragmentation, Liver",DNA fragmentation; [1],4.1 ± 0.33
same,"DNA Fragmentation, Kidney",DNA fragmentation; [2],4.4 ± 0.37
same,"DNA Fragmentation, Liver",DNA fragmentation; [2],4.3 ± 0.38
same,SBP over the last month vs control,Zucker Fatty Rats (ZFR); [1],significantly lower SBP
same,SBP over the last month vs control,Zucker Fatty Rats (ZFR); [2],tendency for the SBP to be lower
same,SBP after heat stress,Zucker Fatty Rats (ZFR); [1],133.5 ± 1.5 mm Hg
same,SBP after heat stress,Zucker Fatty Rats (ZFR); [2],140.0 ± 2.0 mm Hg
same,DBP,Zucker Fatty Rats (ZFR); [1],102.0 ± 2.0 mm Hg
same,SBP,Zucker Fatty Rats (ZFR); [1],132.0 ± 1.8 mm Hg
same,Cardiac rate,Zucker Fatty Rats (ZFR); [1],401.0 ± 10.6
same,DBP,Zucker Fatty Rats (ZFR); [2],108.0 ± 2.1 mm Hg
same,SBP,Zucker Fatty Rats (ZFR); [2],134.0 ± 1.6 mm Hg
same,Cardiac rate,Zucker Fatty Rats (ZFR); [2],387.0 ± 8.6
same,SBP at the end of study (75 days) vs Lo Asta group,Zucker Fatty Rats (ZFR); [1],significantly lower than in the Lo Asta group
same,average SBP vs control from 40 days to end of study,Zucker Fatty Rats (ZFR); [1],significantly lower than control
same,average SBP vs control from 40 days to end of study,Zucker Fatty Rats (ZFR); [2],significantly lower than control
"C[C@H](CS)C(=O)N1CCC[C@H]1C(=O)O [Captopril, reference compound]",Adiponectin,adiponectin; captopril 30 mg/kg in feed,4.27 ± 0.39
same,IL-1β,IL-1B; captopril 30 mg/kg in feed,416.0 ± 14.8
same,"DNA Fragmentation (% Control), Kidney",DNA fragmentation; captopril 30 mg/kg in feed,105 % Control
same,"DNA Fragmentation (% Control), Liver",DNA fragmentation; captopril 30 mg/kg in feed,100 % Control
same,"DNA Fragmentation, Kidney",DNA fragmentation; captopril 30 mg/kg in feed,4.5 ± 0.51
same,"DNA Fragmentation, Liver",DNA fragmentation; captopril 30 mg/kg in feed,4.0 ± 0.17
same,SBP over the last month vs control,Zucker Fatty Rats (ZFR); captopril 30 mg/kg in feed,significantly lower SBP
same,SBP after heat stress,Zucker Fatty Rats (ZFR); captopril 30 mg/kg in feed,133.8 ± 2.4 mm Hg
same,DBP,Zucker Fatty Rats (ZFR); captopril 30 mg/kg in feed,103.0 ± 1.8 mm Hg
same,SBP,Zucker Fatty Rats (ZFR); captopril 30 mg/kg in feed,129.0 ± 1.5 mm Hg
same,Cardiac rate,Zucker Fatty Rats (ZFR); captopril 30 mg/kg in feed,393.0 ± 9.3
same,SBP at the end of study (75 days) vs Lo Asta group,Zucker Fatty Rats (ZFR); captopril 30 mg/kg in feed,significantly lower than in the Lo Asta group
same,average SBP vs control from 40 days to end of study,Zucker Fatty Rats (ZFR); captopril 30 mg/kg in feed,significantly lower than control

# From patent US8877819B2, “Methods for treating heat stress and related compositions” (Georgetown University, priority 2008, dated 2014)
